Assay results reported in patent US20250326839A1, “TREATMENT OF DISEASES RELATED TO COLONY-STIMULATING FACTOR 1 RECEPTOR DYSFUNCTION USING TREM2 AGONISTS” (Vigil Neuroscience, Inc., priority 2020, published 2025).

System: human monocyte-derived macrophages (hMDMs)
Test: Example 2E: CSF1R inhibition by PLX5622, confluence and morphology (Incucyte)
Type: cell-based
Conditions: PLX5622 1 μM relative to vehicle alone
Protocol: PBMCs were isolated from fresh, whole blood from human donors. CD14+ monocytes were isolated using positive magnetic selection (Miltenyi). Cells were plated in UpCell® low-adhesion plates and incubated in culture media with 50 ng/mL CSF1 for 48 hours. After 48 hours, cells were non-enzymatically harvested and plated at 25,000 cells per well in cell culture plates coated with 10 μg/mL of either Ab-3 or a matching isotype control. PLX5622 was immediately added to the cultures to 1 μM, and plates were incubated in a humidified incubator at 37 C, 5% CO2 for an additional 96 hours. During incubation, cells were monitored every two hours using an Incucyte S3® analyzer (2 fields of view per well, imaged at 10×). Confluence was measured using built in S3 software, while area and eccentricity (cell shape) were measured using the built in “Cell By Cell” analysis software. Significance was determined by Student's T-test, two-tailed in Graphpad Prism.

SMILES: COc1ncc(F)cc1CNc1ccc(Cc2c[nH]c3ncc(C)cc23)c(F)n1 [PLX5622, reference compound]
- confluence (FIG. 5): significant reduction in confluence
- cells with “high area, high eccentricity” (ramified) (FIG. 6): significant reduction in cells with “high area, high eccentricity”
